From patent US20080182822A1, “Liquid Pharmaceutical Compositions Comprising a Bisphosphonate Compound” (Besins Healthcare SA, priority 2006, published 2008)
Several values for one entry are separate records, joined by “and”; a condition that tells them apart may be missing. Identical values can stand only once. Like-named read-outs stand apart in the source and are kept apart here.

Conditions: rat; for Faeces Excretion, Amount Excreted (% of Dose), 8 hours / Urinary Excretion, Amount Excreted (% of Dose), 8 hours: collection 0-8 hours; for Faeces Excretion, Amount Excreted (% of Dose), 72 hours / Urinary Excretion, Amount Excreted (% of Dose), 72 hours: collection 48-72 hours; for Faeces Excretion, Amount Excreted (% of Dose), 96 hours / Urinary Excretion, Amount Excreted (% of Dose), 96 hours: collection 72-96 hours; for Faeces Excretion, Amount Excreted (% of Dose), 120 hours / Urinary Excretion, Amount Excreted (% of Dose), 120 hours: collection 96-120 hours; for Faeces Excretion, Amount Excreted (% of Dose), 144 hours / Urinary Excretion, Amount Excreted (% of Dose), 144 hours: collection 120-144 hours; for Faeces Excretion, Amount Excreted (% of Dose), 168 hours / Urinary Excretion, Amount Excreted (% of Dose), 168 hours: collection 144-168 hours; for Recovery from Treated Skin, % of Dose: dermal (Group 2)
[1] = dermal 1.9 mg (Group 2), individual animals
[2] = dermal 1.9 mg (Group 2), collection 8-24 hours, individual animals
[3] = dermal 1.9 mg (Group 2), collection 24-48 hours, individual animals
[4] = dermal 1.9 mg (Group 2), necropsy Day 4, Mean
[5] = dermal 1.9 mg (Group 2), necropsy Day 4, individual animals
[6] = dermal 1.9 mg (Group 2), necropsy Day 8, Mean
[7] = dermal 1.9 mg (Group 2), necropsy Day 8, individual animals

In the case of `NCCCC(O)(P(=O)(O)O)P(=O)(O)O` [14C-alendronate], the “Faeces Excretion, Total Excretion (% of Dose), 0-168 hours” value (dermal 1.9 mg (Group 2), Mean) is reported as “approximately 2 % of Dose”, the “Urinary Excretion, Total Excretion (% of Dose), 0-72 hours” value (dermal 1.9 mg (Group 2), Mean) is reported as 0.40% of Dose and the “Faeces Excretion, Amount Excreted (% of Dose), 8 hours” value (dermal 1.9 mg (Group 2), Mean) is reported as 0.004% of Dose. The “Urinary Excretion, Amount Excreted (% of Dose), 8 hours” value (dermal 1.9 mg (Group 2), Mean) was 0.17% of Dose, the “Faeces Excretion, Amount Excreted (% of Dose), 8 hours” value [1] was 0.004% of Dose (2×) and 0.000% of Dose (2×) and 0.001% of Dose (2×) and 0.014% of Dose and 0.003% of Dose and the “Urinary Excretion, Amount Excreted (% of Dose), 8 hours” value [1] was 0.15% of Dose and 0.02% of Dose and 0.05% of Dose and 0.08% of Dose (2×) and 0.22% of Dose and 0.14% of Dose and 0.09% of Dose and 0.83% of Dose and 0.07% of Dose. The “Urinary Excretion, Amount Excreted (% of Dose), 24 hours” value (dermal 1.9 mg (Group 2), collection 8-24 hours, Mean) was 0.12% of Dose, the “Faeces Excretion, Amount Excreted (% of Dose), 24 hours” value [2] was 0.047% of Dose and 0.001% of Dose and 0.066% of Dose and the “Urinary Excretion, Amount Excreted (% of Dose), 24 hours” value [2] was 0.07% of Dose (3×) and 0.06% of Dose (2×) and 0.05% of Dose and 0.27% of Dose and 0.33% of Dose and 0.16% of Dose and 0.11% of Dose. For the same compound, the “Urinary Excretion, Amount Excreted (% of Dose), 48 hours” value (dermal 1.9 mg (Group 2), collection 24-48 hours, Mean) was 0.06% of Dose, the “Faeces Excretion, Amount Excreted (% of Dose), 48 hours” value [3] was 0.68% of Dose and 0.30% of Dose and 0.58% of Dose and 0.60% of Dose and 0.53% of Dose and 0.52% of Dose and the “Urinary Excretion, Amount Excreted (% of Dose), 48 hours” value [3] was 0.06% of Dose (5×) and 0.02% of Dose (2×) and 0.14% of Dose and 0.12% of Dose and 0.03% of Dose. For the same compound, the “Faeces Excretion, Amount Excreted (% of Dose), 72 hours” value (dermal 1.9 mg (Group 2), Mean) was 0.16% of Dose, the “Urinary Excretion, Amount Excreted (% of Dose), 72 hours” value (dermal 1.9 mg (Group 2), Mean) was 0.04% of Dose and the “Faeces Excretion, Amount Excreted (% of Dose), 72 hours” value [1] was 0.33% of Dose and 0.19% of Dose and 0.15% of Dose and 0.10% of Dose and 0.46% of Dose and 0.17% of Dose and 0.05% of Dose and 0.02% of Dose (2×). For the same compound, the “Urinary Excretion, Amount Excreted (% of Dose), 72 hours” value [1] was 0.06% of Dose (2×) and 0.02% of Dose (3×) and 0.03% of Dose (2×) and 0.01% of Dose (2×) and 0.13% of Dose, the “Faeces Excretion, Amount Excreted (% of Dose), 96 hours” value (dermal 1.9 mg (Group 2), Mean) was 0.10% of Dose and the “Urinary Excretion, Amount Excreted (% of Dose), 96 hours” value (dermal 1.9 mg (Group 2), Mean) was 0.03% of Dose. For the same compound, the “Faeces Excretion, Amount Excreted (% of Dose), 96 hours” value [1] was 0.13% of Dose and 0.05% of Dose (2×) and 0.09% of Dose and 0.18% of Dose, the “Urinary Excretion, Amount Excreted (% of Dose), 96 hours” value [1] was 0.05% of Dose and 0.03% of Dose (2×) and 0.02% of Dose and 0.01% of Dose and the “Faeces Excretion, Amount Excreted (% of Dose), 120 hours” value (dermal 1.9 mg (Group 2), Mean) was 0.07% of Dose. The “Urinary Excretion, Amount Excreted (% of Dose), 120 hours” value (dermal 1.9 mg (Group 2), Mean) was 0.02% of Dose, the “Faeces Excretion, Amount Excreted (% of Dose), 120 hours” value [1] was 0.13% of Dose and 0.05% of Dose (2×) and 0.02% of Dose and 0.10% of Dose and the “Urinary Excretion, Amount Excreted (% of Dose), 120 hours” value [1] was 0.06% of Dose and 0.02% of Dose (2×) and 0.01% of Dose (2×). The “Faeces Excretion, Amount Excreted (% of Dose), 144 hours” value (dermal 1.9 mg (Group 2), Mean) was 0.05% of Dose, the “Urinary Excretion, Amount Excreted (% of Dose), 144 hours” value (dermal 1.9 mg (Group 2), Mean) was 0.01% of Dose and the “Faeces Excretion, Amount Excreted (% of Dose), 144 hours” value [1] was 0.07% of Dose and 0.04% of Dose (2×) and 0.03% of Dose and 0.09% of Dose. The “Urinary Excretion, Amount Excreted (% of Dose), 144 hours” value [1] was 0.02% of Dose and 0.01% of Dose (4×), the “Faeces Excretion, Amount Excreted (% of Dose), 168 hours” value (dermal 1.9 mg (Group 2), Mean) was 0.00% of Dose and the “Urinary Excretion, Amount Excreted (% of Dose), 168 hours” value (dermal 1.9 mg (Group 2), Mean) was 0.00% of Dose. For the same compound, the “Faeces Excretion, Amount Excreted (% of Dose), 168 hours” value [1] was 0.01% of Dose (3×) and 0.00% of Dose (2×), the “Urinary Excretion, Amount Excreted (% of Dose), 168 hours” value [1] was 0.01% of Dose and 0.00% of Dose (4×) and the “Faeces Excretion, Total Excretion (% of Dose), 0-72 hours” value [1] was 0.53% of Dose and 0.88% of Dose and 0.59% of Dose. For the same compound, the “Faeces Excretion, Total Excretion (% of Dose), 0-168 hours” value [1] was 0.66% of Dose, the “Urinary Excretion, Total Excretion (% of Dose), 0-72 hours” value [1] was 0.34% of Dose and 0.16% of Dose and 0.20% of Dose and 0.17% of Dose and 0.57% of Dose and 0.74% of Dose and 0.21% of Dose and 0.23% of Dose and 0.22% of Dose and the “Concentration in bone, Femur” value [4] was 0.060 μg 14C-alendronate/g bone. For the same compound, the “Concentration in bone, Tibia” value [4] was 0.039 μg 14C-alendronate/g bone, the “Concentration in bone, Femur” value [5] was 0.222 μg 14C-alendronate/g bone and 0.018 μg 14C-alendronate/g bone (2×) and 0.015 μg 14C-alendronate/g bone and 0.026 μg 14C-alendronate/g bone and the “Concentration in bone, Tibia” value [5] was 0.130 μg 14C-alendronate/g bone and 0.039 μg 14C-alendronate/g bone and 0.016 μg 14C-alendronate/g bone and 0.002 μg 14C-alendronate/g bone and 0.011 μg 14C-alendronate/g bone. For the same compound, the “Concentration in bone, Femur” value [6] was 0.029 μg 14C-alendronate/g bone, the “Concentration in bone, Tibia” value [6] was 0.017 μg 14C-alendronate/g bone and the “Concentration in bone, Femur” value [7] was 0.022 μg 14C-alendronate/g bone and 0.016 μg 14C-alendronate/g bone and 0.011 μg 14C-alendronate/g bone and 0.069 μg 14C-alendronate/g bone. The “Concentration in bone, Tibia” value [7] was 0.012 μg 14C-alendronate/g bone and 0.007 μg 14C-alendronate/g bone and 0.031 μg 14C-alendronate/g bone, the “Recovery from Treated Skin, % of Dose” value (necropsy Day 4, Mean) was 0.35% and the “Recovery from Treated Skin, % of Dose” value (necropsy Day 4, individual animals) was 0.35% (2×) and 0.30% and 0.44% and 0.33%. For the same compound, the “Recovery from Treated Skin, % of Dose” value (necropsy Day 8, Mean) was 0.28%.
